Results: patent publication US20230382909A1, “BICYCLIC COMPOUNDS” (Aligos Therapeutics, Inc., priority 2022, published 2023)

What was measured:
HBV = experiment: HBV-DNA antiviral assay using HepG2.117 cells; assay type: cell-based, HBV genotype D; conditions: Hepatitis B virus, HepG2.117, 72 h
Method: (§1) The following assay procedure describes the HBV antiviral assay, using HepG2.117 cells, which carry a stably integrated genotype D HBV genome under the control of a Tet-off promoter, and intracellular HBV DNA quantification as endpoint. Cell viability is assessed in parallel by measuring the intracellular ATP content using CellTiter-Glo 2.0 (Promega).
On day 0, HepG2.117 cells (which are maintained in routine cell culture with doxycycline present in the medium at a final concentration of 1 μg/mL) are seeded in 96-well plates (white with clear bottom) at a density of 2.0×10^4 cells/well (0.1 mL/well) in medium without doxycycline to induce pgRNA transcription and subsequent formation of HBV particles. The cells are incubated at 37° C. and 5% CO2.
(§2) On day 1, medium is removed from each well, the test articles are diluted in culture medium without doxcycyline and 100 μL was added to cell culture wells (9 concentrations, 4-fold dilution). For each plate, 6 untreated (merely DMSO) wells are included. The final concentration of DMSO in the culture medium is 2%. Each plate is prepared in duplicate (one for HBV DNA extraction, one for CellTiter-Glo 2.0 measurement). The cells are incubated at 37° C. and 5% CO2 for 3 days.
(§3) On day 4, cell viability is assessed using CellTiter-Glo 2.0 and cell lysates are prepared for HBV DNA extraction and subsequent quantification by qPCR.
HBV DNA Quantification by qPCR
Medium is removed from each well and 100 μL of 0.33% NP-40 in H2O was added to each well. Plates are sealed, incubated at 4° C. for 5 mins, vortexed extensively and centrifuged briefly. Next, 35 μL of lysate is added to 65 μL QuickExtract DNA Extraction Solution (Epicentre) in a PCR plate for each well. PCR plate is incubated at 65° C. for 6 mins, 98° C. for 2 mins and finally cooled to 4° C. HBV DNA is then quantified by qPCR with HBV-specific primers and probes as specified in Table 3 using the Bio-Rad SSOAdvanced Universal Probes Supermix on a CFX96 machine (Bio-Rad). The PCR cycle program consisted of 95° C. for 3 mins, followed by 40 cycles at 95° C. for 10 sec and 60° C. for 30 sec.
A DNA standard is prepared by dilution of an IDT gBlock corresponding to the amplicon with concentrations ranging from 10^2 to 10^8 copies/input (i.e., per 4 μL) and used to generate a standard curve by plotting Cq values vs. HBV DNA standard concentration. The quantity of HBV DNA in each sample is determined by interpolating from the standard curve.
(§4) Cell viability is calculated as follows: % Cell viability=(luminescence value of test sample)/(average luminescence value of 2% DMSO control)×100%. HBV DNA inhibition was calculated as follows: 100−(HBV DNA copy number of test sample)/(average HBV DNA copy number of 2% DMSO control)×100%. No normalization to entecavir is required due to the excellent dynamic window of this assay. The CC50, EC50 and EC9o values were determined by dose-response curves fitted using non-linear regression.

[1] = Cell viability by CellTiter-Glo 2.0 (intracellular ATP content) in HepG2.117 cells; assay type: cell-based; conditions: human, CellTiter-Glo 2.0, 3 days incubation
Method: as §1, §2, §3
Using the other plates, the cell viability is quantified by CellTiter-Glo 2.0 according to the manufacturer's manual. In brief, 100 μL of reagent solution is added to the culture plates and shaken for 2′. The plates are incubated at rt for 10 min and luminescence signal is subsequently measured on a VarioSkan Lux (ThermoFisher) plate reader.
as §4

| SMILES | EC50 (HBV) | CC50 at 3 days [1] |
| --- | --- | --- |
| Cc1cc(C)n(-c2nc3c(c(=O)n2-c2ccc(N4CC(O)C4)nc2)C[C@@H](C)N(C(=O)c2ccc(Br)c(C(F)(F)F)c2)C3)n1 [Compound 32, (6R)-7-[4-bromo-3-(trifluoromethyl)benzoyl]-2-(3,5-dimethylpyrazol-1-yl)-3-[6-(3-hydroxyazetidin-1-yl)-3-pyridyl]-6-methyl-6,8-dihydro-5H-pyrido[3,4-d]pyrimidin-4-one] | < 50 nM | > 500 nM |
| Cc1cc(C)n(-c2nc3c(c(=O)n2-c2ccc(-c4cnn(C)c4)cn2)C[C@@H](C)N(C(=O)c2ccc(Br)c(C(F)(F)F)c2)C3)n1 [Compound 16, (6R)-7-[4-bromo-3-(trifluoromethyl)benzoyl]-2-(3,5-dimethylpyrazol-1-yl)-6-methyl-3-[5-(1-methylpyrazol-4-yl)-2-pyridyl]-6,8-dihydro-5H-pyrido[3,4-d]pyrimidin-4-one] | < 50 nM | > 500 nM |
| Cc1cc(C)n(-c2nc3c(c(=O)n2-c2ccc(O)cc2)C[C@@H](C)N(C(=O)c2ccc(Br)c(C(F)(F)F)c2)C3)n1 [Compound 4, (R)-7-(4-bromo-3-(trifluoromethyl)benzoyl)-2-(3,5-dimethyl-1H-pyrazol-1-yl)-3-(4-hydroxyphenyl)-6-methyl-5,6,7,8-tetrahydropyrido[3,4-d]pyrimidin-4(3H)-one] | < 50 nM | > 500 nM |
| Cc1cc(C)n(-c2nc3c(c(=O)n2-c2ccc4c(c2)ncn4C)C[C@@H](C)N(C(=O)c2ccc(Br)c(C(F)(F)F)c2)C3)n1 [Compound 1, (R)-7-(4-bromo-3-(trifluoromethyl)benzoyl)-2-(3,5-dimethyl-1H-pyrazol-1-yl)-6-methyl-3-(1-methyl-1H-benzo[d]imidazol-5-yl)-5,6,7,8-tetrahydropyrido[3,4-d]pyrimidin-4(3H)-one] | < 50 nM | > 500 nM |
| Cc1cc(C)n(-c2nc3c(c(=O)n2-c2cc(C)c4c(c2)ncn4C)C[C@@H](C)N(C(=O)c2ccc(Br)c(C(F)(F)F)c2)C3)n1 [Compound 26, (6R)-7-[4-bromo-3-(trifluoromethyl)benzoyl]-3-(1,7-dimethylbenzimidazol-5-yl)-2-(3,5-dimethylpyrazol-1-yl)-6-methyl-6,8-dihydro-5H-pyrido[3,4-d]pyrimidin-4-one] | < 50 nM | > 500 nM |
| Cc1cc(C)n(-c2nc3c(c(=O)n2-c2ccc(N4CC[C@@H](O)C4)nc2)C[C@@H](C)N(C(=O)c2ccc(Br)c(C(F)(F)F)c2)C3)n1 [Compound 9, (R)-7-(4-bromo-3-(trifluoromethyl)benzoyl)-2-(3,5-dimethyl-1H-pyrazol-1-yl)-3-(6-((R)-3-hydroxypyrrolidin-1-yl)pyridin-3-yl)-6-methyl-5,6,7,8-tetrahydropyrido[3,4-d]pyrimidin-4(3H)-one] | < 50 nM | > 500 nM |
| Cc1cc(C)n(-c2nc3c(c(=O)n2-c2cc(F)c4ncn(C)c4c2)C[C@@H](C)N(C(=O)c2ccc(Br)c(C(F)(F)F)c2)C3)n1 [Compound 21, (6R)-7-[4-bromo-3-(trifluoromethyl)benzoyl]-2-(3,5-dimethylpyrazol-1-yl)-3-(7-fluoro-3-methyl-benzimidazol-5-yl)-6-methyl-6,8-dihydro-5H-pyrido[3,4-d]pyrimidin-4-one] | < 50 nM | > 500 nM |
| Cc1cc(C)n(-c2nc3c(c(=O)n2-c2ccc(NC[C@@H](C)O)nc2)C[C@@H](C)N(C(=O)c2ccc(Br)c(C(F)(F)F)c2)C3)n1 [Compound 8, (R)-7-(4-bromo-3-(trifluoromethyl)benzoyl)-2-(3,5-dimethyl-1H-pyrazol-1-yl)-3-(6-(((R)-2-hydroxypropyl)amino)pyridin-3-yl)-6-methyl-5,6,7,8-tetrahydropyrido[3,4-d]pyrimidin-4(3H)-one] | < 50 nM | > 500 nM |
| Cc1cc(C)n(-c2nc3c(c(=O)n2-c2ccc(NC[C@@H](O)CO)nc2)C[C@@H](C)N(C(=O)c2ccc(Br)c(C(F)(F)F)c2)C3)n1 [Compound 30, (6R)-7-[4-bromo-3-(trifluoromethyl)benzoyl]-3-[6-[[(2R)-2,3-dihydroxypropyl]amino]-3-pyridyl]-2-(3,5-dimethylpyrazol-1-yl)-6-methyl-6,8-dihydro-5H-pyrido[3,4-d]pyrimidin-4-one] | 50 to 500 nM | > 500 nM |
| Cc1cc(C)n(-c2nc3c(c(=O)n2-c2ccc4c(ncn4C)n2)C[C@@H](C)N(C(=O)c2ccc(Br)c(C(F)(F)F)c2)C3)n1 [Compound 3, (R)-7-(4-bromo-3-(trifluoromethyl)benzoyl)-2-(3,5-dimethyl-1H-pyrazol-1-yl)-6-methyl-3-(1-methyl-1H-imidazo[4,5-b]pyridin-5-yl)-5,6,7,8-tetrahydropyrido[3,4-d]pyrimidin-4(3H)-one] | < 50 nM | > 500 nM |
| Cc1cc(C)n(-c2nc3c(c(=O)n2-c2ccc(OC[C@@H](O)CO)cc2)C[C@@H](C)N(C(=O)c2ccc(Br)c(C(F)(F)F)c2)C3)n1 [Compound 6, (R)-7-(4-bromo-3-(trifluoromethyl)benzoyl)-3-(4-((S)-2,3-dihydroxypropoxy)phenyl)-2-(3,5-dimethyl-1H-pyrazol-1-yl)-6-methyl-5,6,7,8-tetrahydropyrido[3,4-d]pyrimidin-4(3H)-one] | 50 to 500 nM | > 500 nM |
| Cc1cc(C)n(-c2nc3c(c(=O)n2-c2ccc(NC[C@H](C)O)nc2)C[C@@H](C)N(C(=O)c2ccc(Br)c(C(F)(F)F)c2)C3)n1 [Compound 29, (6R)-7-[4-bromo-3-(trifluoromethyl)benzoyl]-2-(3,5-dimethylpyrazol-1-yl)-3-[6-[[(2S)-2-hydroxypropyl]amino]-3-pyridyl]-6-methyl-6,8-dihydro-5H-pyrido[3,4-d]pyrimidin-4-one] | < 50 nM | > 500 nM |
| Cc1cc(C)n(-c2nc3c(c(=O)n2-c2ccc(O[C@H]4C[C@H](O)C4)nc2)C[C@@H](C)N(C(=O)c2ccc(Br)c(C(F)(F)F)c2)C3)n1 [Compound 40, (R)-7-(4-bromo-3-(trifluoromethyl)benzoyl)-2-(3,5-dimethyl-1H-pyrazol-1-yl)-3-(6-((1r,3R)-3-hydroxycyclobutoxy)pyridin-3-yl)-6-methyl-5,6,7,8-tetrahydropyrido[3,4-d]pyrimidin-4(3H)-one] | < 50 nM | > 500 nM |
| Cc1cc(C)n(-c2nc3c(c(=O)n2-c2cc(Cl)c4c(c2)ncn4C)C[C@@H](C)N(C(=O)c2ccc(Br)c(C(F)(F)F)c2)C3)n1 [Compound 17, (6R)-7-[4-bromo-3-(trifluoromethyl)benzoyl]-3-(7-chloro-1-methyl-benzimidazol-5-yl)-2-(3,5-dimethylpyrazol-1-yl)-6-methyl-6,8-dihydro-5H-pyrido[3,4-d]pyrimidin-4-one] | < 50 nM | > 500 nM |
| Cc1cc(C)n(-c2nc3c(c(=O)n2-c2ccc(N[C@H]4C[C@H](O)C4)nc2)C[C@@H](C)N(C(=O)c2ccc(Br)c(C(F)(F)F)c2)C3)n1 [Compound 36, (R)-7-(4-bromo-3-(trifluoromethyl)benzoyl)-2-(3,5-dimethyl-1H-pyrazol-1-yl)-3-(6-(((1r,3R)-3-hydroxycyclobutyl)amino)pyridin-3-yl)-6-methyl-5,6,7,8-tetrahydropyrido[3,4-d]pyrimidin-4(3H)-one] | < 50 nM | > 500 nM |
| Cc1cc(C)n(-c2nc3c(c(=O)n2-c2ccc(OC[C@H](C)O)cc2)C[C@@H](C)N(C(=O)c2ccc(Br)c(C(F)(F)F)c2)C3)n1 [Compound 15, (6R)-7-[4-bromo-3-(trifluoromethyl)benzoyl]-2-(3,5-dimethylpyrazol-1-yl)-3-[4-[(2S)-2-hydroxypropoxy]phenyl]-6-methyl-6,8-dihydro-5H-pyrido[3,4-d]pyrimidin-4-one] | < 50 nM | > 500 nM |
